According to patent US6440660B1 (priority 1995, dated 2002):
Values after ≈ are worked out from the molar mass of the structure shown.

Legend:
[1] = test system: P. falciparum field isolate PR145; conditions: cited from earlier work
[2] = test system: P. falciparum W2; conditions: strain W2; cited from earlier work
[3] = test system: P. falciparum field isolate TM352; conditions: strain TM352; cited from earlier work
[4] = test system: P. falciparum field isolate TM336; conditions: strain TM336; cited from earlier work
[5] = test system: P. falciparum field isolate TM346; conditions: cited from earlier work
[6] = test system: P. falciparum field isolate TM335; conditions: cited from earlier work
[7] = test system: P. falciparum W2mef; conditions: strain W2mef; cited from earlier work
[8] = test system: W2mef parasites (resistant to mefloquine); assay: Mefloquine resistance reversal study, W2mef (FIGS. 2, 3, 5); type: cell-based, P. falciparum; conditions: mefloquine alone without oligonucleotide, below threshold mefloquine concentration

| Structure (SMILES) | IC50 [1] | IC50 [2] | IC50 [3] | IC50 [4] | IC50 [5] | IC50 [6] | IC50 [7] | 3H-hypoxanthine incorporated on average [8] |
| --- | --- | --- | --- | --- | --- | --- | --- | --- |
| CCCCN(CCCC)CCC(O)c1cc2c(Cl)cc(Cl)cc2c2cc(C(F)(F)F)ccc12 (stereo not shown) [halofantrine] | 2.0 ng/mL (≈ 0.004 µM) | 0.3 ng/mL (≈ 0.000599 µM) | 3.0 ng/mL (≈ 0.00599 µM) | 2.8 ng/mL (≈ 0.0056 µM) | 3.7 ng/mL (≈ 0.00739 µM) | 0.61 ng/mL (≈ 0.00122 µM) |  |  |
| OC(c1cc(C(F)(F)F)nc2c(C(F)(F)F)cccc12)C1CCCCN1 (stereo not shown) [mefloquine] | 10 ng/mL (≈ 0.0264 µM) | 2 ng/mL (≈ 0.00529 µM) | 22 ng/mL (≈ 0.0582 µM) | 15 ng/mL (≈ 0.0396 µM) | 20 ng/mL (≈ 0.0529 µM) | 6 ng/mL (≈ 0.0159 µM) | 16 ng/mL (≈ 0.0423 µM) | 11,000 cpm |
| C=C[C@H]1C[N@@]2CC[C@H]1C[C@H]2[C@H](O)c1ccnc2ccc(OC)cc12 [quinine] | 90 ng/mL (≈ 0.277 µM) | 74 ng/mL (≈ 0.228 µM) | 1.2 ng/mL (≈ 0.0037 µM) | 87 ng/mL (≈ 0.268 µM) |  | 65 ng/mL (≈ 0.2 µM) |  |  |
